± gives the expanded uncertainty stated by the source.
Assay: xn = mol fraction of the nth substance listed
Conditions: 101 kPa, Liquid, Vibrating tube method, x2 = 0.3333

Q: Which mass density (293.15 K) does the source give for `NC(N)=O` [urea] + C[N+](C)(C)CCO.[Cl-] here?
A: 1200.1 ± 0.4 kg/m3

Q: What about the mass density (303.15 K) of the same compound?
A: 1194.5 ± 0.4 kg/m3

Q: And the mass density (313.15 K)?
A: 1188.7 ± 0.4 kg/m3

Q: And the mass density (323.15 K)?
A: 1183.1 ± 0.4 kg/m3

Q: And the mass density (333.15 K)?
A: 1177.3 ± 0.4 kg/m3

Q: What about the mass density (343.15 K) of the same compound?
A: 1170.8 ± 0.4 kg/m3

Q: What about the mass density (353.15 K) of the same compound?
A: 1163.5 ± 0.4 kg/m3

Q: And the mass density (363.15 K)?
A: 1155.4 ± 0.4 kg/m3
